Molecules are shown by their SMILES.

One experiment relates to hair grease production. In words: Human scalp health study: hair tonic applied to scalp, greasiness by subjective evaluation and Sebutape method. Particulars: hair tonic with 0.2% sphinganine, 3 mL to scalp twice daily, 4 months; vehicle control; 16 subjects per group. In kind it is in vivo. How it is done: The panel comprised 32 subjects (mixed male/female, minimum age 30, with a tendency for greasy scalp/greasy hair), with 16 subjects in each case applying a hair tonic with 0.2% sphinganine or without sphinganine (vehicle control). The application phase comprised 4 months, with the hair tonic being applied to the scalp twice daily (morning and evening) with the help of a pipette with a defined volume of 3 mL, and gently massaged in using the hands. The test parameters included the shine of the hair and the greasiness of the scalp. The greasiness of the scalp is carried out firstly by means of a subjective evaluation (self and expert estimation), and secondly by means of a “Sebutape” method in accordance with manufacturers instructions. Time points for carrying out the measurements were before the start of application, after two months and after four months.

Experiment [1] relates to sebum production of the skin. The experiment is described as follows: Human sebum study: skin sebum on the forehead measured with Sebumeter SM 815. The experiment is classed as in vivo. Particulars: lotion with 0.1% sphinganine, topical to forehead twice daily, 28 days (T4 vs T0); compared to the starting value and to the vehicle group; 14 female subjects. The method, then:
The panel comprised 30 female subjects aged 21-45 years, with 14 subjects applying a lotion containing 0.1% sphinganine and 16 subjects applying a lotion without sphinganine (vehicle control).
The application phase comprised 28 days, with application taking place twice daily (morning and evening) to the forehead.
The skin sebum was measured using a Sebumeter SM 815® from Courage+Khazaka electronic GmbH, Cologne, Germany. The measurements were taken in the middle of the forehead in the region of the glabella lines. The average value calculated from the individual values of three repeat measurements was registered. On the evening before each measurement no formulation was applied. Three hours before the measurement, the forehead was cleaned using a wipe (babylove sensitive wipes, dm-drogerie markt, Karlsruhe, Germany). The measurements were carried out in each case at a time of day defined individually for each subject in the period between 12:00 and 14:30 hours. The sebum value at time point T0 before the application phase and T4 after 28 days was determined.

In the next experiment the test system is stem cell markers. In words: Gene expression studies in cell cultures. In kind it is cell-based. From the text:
A further subject matter of the present invention is consequently the cosmetic use of sphinganine for modulating stem cell markers.

On to `CCCCCCCCCCCCCCC[C@@H](O)[C@@H](N)CO` [sphinganine], for which the hair grease production result with hair grease production is listed as “significant reduction in hair grease production”. Moreover, in experiment [1], the sebum production result is on record as “statistically significant reduction in sebum production”. In addition, the “expression of stem cell markers” value in the experiment with stem cell markers is “beneficially modulated the expression of so-called stem cell markers”.

Source of the values: patent publication US9610232B2, “Use of sphinganine to improve the visual appearance of skin and hair” (EVONIK DEGUSSA GMBH, priority 2011, dated 2017).
